For data set [1] the following is noted: oral dosage form; cited from earlier work.
For data set [2] the following is noted: 10 mg/day (5 mg twice daily); randomised, double-blind, placebo-controlled trials; cited from earlier work.
The nature of a further data set: Solubility in water. Format: physicochemical. The following applies: pH of about 4.0 to about 5.0.

Where a name gives a salt, the structure may show the parent alone.

Data on two compounds can be found in US20080306133A1, “INTRANASAL ADMINISTRATION OF ASENAPINE AND PHARMACEUTICAL COMPOSITIONS THEREFOR” (priority 2007, published 2008).

Take `CN1C[C@@H]2c3ccccc3Oc3ccc(Cl)cc3[C@H]2C1` (relative stereo) [Asenapine, trans-5-chloro-2-methyl-2,3,3a,12b-tetrahydro-1H-dibenz[2,3:6,7]oxepino[4,5-c]pyrrole]: the bioavailability (commonly dose-corrected exposure relative to a reference, in per cent) in data set [1] is on record as below 1%. In addition, the “efficacy in the treatment of schizophrenia as assessed by the Positive and Negative Symptoms Scale (PANSS)” value in data set [2] is on record as “effective”. Consider `CN1CC2c3ccccc3Oc3ccc(Cl)cc3C2C1` (stereo not drawn) [Asenapine maleate], for which the solubility – broadly, how much of the substance goes into solution per volume – in “Solubility in water” is around 10000 µg/mL.
